According to ChEMBL document CHEMBL1201862, “PubChem BioAssay data set” (2004):
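Growth conditions: 96-well plates. Treatment: test compound, 48 hours, 5 concentrations. Analysis: linear interpolation between bracketing concentrations; unreached endpoints set to highest concentration. GI50 marks 50% less growth.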 The source made the active and inactive calls. Cut-off read from the data, not from the text of the source: active = GI50 up to about 1.1 µM and inactive = higher.

Legend:
Assay in all cases: growth of human tumour cells (NCI), 48 h
HOP-62 = tested on: HOP-62
786-0 = tested on: 786-0
SF-539 = tested on: SF-539
M14 = tested on: M14
SN12C = tested on: SN12C
IGROV-1 = tested on: IGROV-1
NCI-H522 = tested on: NCI-H522
ACHN = tested on: ACHN
SF-295 = tested on: SF-295
HCC 2998 = tested on: HCC 2998
MDA-MB-435 = tested on: MDA-MB-435
Malme-3M = tested on: Malme-3M
OVCAR-5 = tested on: OVCAR-5
OVCAR-8 = tested on: OVCAR-8
HT-29 = tested on: HT-29
K562 = tested on: K562
UACC-257 = tested on: UACC-257
NCI-H460 = tested on: NCI-H460
SNB-75 = tested on: SNB-75
DU-145 = tested on: DU-145
LOX IMVI = tested on: LOX IMVI
MOLT-4 = tested on: MOLT-4
NCI-H226 = tested on: NCI-H226
SF-268 = tested on: SF-268
SK-OV-3 = tested on: SK-OV-3
RXF 393 = tested on: RXF 393
MDA-N = tested on: MDA-N
T47D = tested on: T47D
HCT-116 = tested on: HCT-116
CAKI-1 = tested on: CAKI-1
KM12 = tested on: KM12
Hs-578T = tested on: Hs-578T
SNB-19 = tested on: SNB-19
CCRF-CEM = tested on: CCRF-CEM
HOP-92 = tested on: HOP-92
TK-10 = tested on: TK-10
EKVX = tested on: EKVX
SW-620 = tested on: SW-620
HCT-15 = tested on: HCT-15
COLO 205 = tested on: COLO 205
UO-31 = tested on: UO-31
SK-MEL-5 = tested on: SK-MEL-5
NCI-H23 = tested on: NCI-H23
SR = tested on: SR
SK-MEL-28 = tested on: SK-MEL-28
MCF7 = tested on: MCF7
MDA-MB-231 = tested on: MDA-MB-231
U-251 = tested on: U-251
RPMI-8226 = tested on: RPMI-8226
BT-549 = tested on: BT-549
HL-60 = tested on: HL-60
A549 = tested on: A549
A498 = tested on: A498
SK-MEL-2 = tested on: SK-MEL-2
NCI/ADR-RES = tested on: NCI/ADR-RES
OVCAR-4 = tested on: OVCAR-4
PC-3 = tested on: PC-3
UACC-62 = tested on: UACC-62
OVCAR-3 = tested on: OVCAR-3

With `COCn1c2ccc(OC(C)=O)cc2c2c(=O)oc(C)nc21` the GI50 (HOP-62) was > 100 µM (inactive), the GI50 (786-0) was > 100 µM (inactive) and the GI50 (SF-539) was > 100 µM (inactive). For the same molecule, the GI50 (M14) was > 100 µM (inactive), the GI50 (SN12C) was > 100 µM (inactive) and the GI50 (IGROV-1) was > 100 µM (inactive). The GI50 (NCI-H522) was > 100 µM (inactive), the GI50 (ACHN) was > 100 µM (inactive) and the GI50 (SF-295) was > 100 µM (inactive). For the same molecule, the GI50 (HCC 2998) was > 100 µM (inactive), the GI50 (MDA-MB-435) was > 100 µM (inactive) and the GI50 (Malme-3M) was > 100 µM (inactive). The GI50 (OVCAR-5) was > 100 µM (inactive), the GI50 (OVCAR-8) was > 100 µM (inactive) and the GI50 (HT-29) was 0.497 µM (active). The GI50 (K562) was > 100 µM (inactive), the GI50 (UACC-257) was > 100 µM (inactive) and the GI50 (NCI-H460) was > 100 µM (inactive). The GI50 (SNB-75) was > 100 µM (inactive), the GI50 (DU-145) was > 100 µM (inactive) and the GI50 (LOX IMVI) was > 100 µM (inactive). For the same molecule, the GI50 (MOLT-4) was > 100 µM (inactive), the GI50 (NCI-H226) was > 100 µM (inactive) and the GI50 (SF-268) was > 100 µM (inactive). The GI50 (SK-OV-3) was > 100 µM (inactive), the GI50 (RXF 393) was > 100 µM (inactive) and the GI50 (MDA-N) was > 100 µM (inactive). For the same molecule, the GI50 (T47D) was > 100 µM (inactive), the GI50 (HCT-116) was > 100 µM (inactive) and the GI50 (CAKI-1) was 57.7 µM (inactive). The GI50 (KM12) was > 100 µM (inactive), the GI50 (Hs-578T) was > 100 µM (inactive) and the GI50 (SNB-19) was > 100 µM (inactive). The GI50 (CCRF-CEM) was > 100 µM (inactive), the GI50 (HOP-92) was > 100 µM (inactive) and the GI50 (TK-10) was > 100 µM (inactive). For the same molecule, the GI50 (EKVX) was > 100 µM (inactive), the GI50 (SW-620) was > 100 µM (inactive) and the GI50 (HCT-15) was over 100 µM. The GI50 (COLO 205) was > 100 µM (inactive), the GI50 (UO-31) was > 100 µM (inactive) and the GI50 (SK-MEL-5) was > 100 µM (inactive). The GI50 (NCI-H23) was > 100 µM (inactive), the GI50 (SR) was > 100 µM (inactive) and the GI50 (SK-MEL-28) was > 100 µM (inactive). For the same molecule, the GI50 (MCF7) was > 100 µM (inactive), the GI50 (MDA-MB-231) was > 100 µM (inactive) and the GI50 (U-251) was > 100 µM (inactive). For the same molecule, the GI50 (RPMI-8226) was > 100 µM (inactive), the GI50 (BT-549) was > 100 µM (inactive) and the GI50 (HL-60) was > 100 µM (inactive). For the same molecule, the GI50 (A549) was > 100 µM (inactive), the GI50 (A498) was 50.4 µM (inactive) and the GI50 (SK-MEL-2) was > 100 µM (inactive). The GI50 (NCI/ADR-RES) was > 100 µM (inactive), the GI50 (OVCAR-4) was > 100 µM (inactive) and the GI50 (PC-3) was > 100 µM (inactive). For the same molecule, the GI50 (UACC-62) was > 100 µM (inactive).
With `CCCCCCCCCCCCOP(=O)(O)OCC(N)C(=O)O` (centres undefined) the GI50 (HOP-62) was 15.4 µM (inactive), the GI50 (786-0) was 30.2 µM (inactive) and the GI50 (SF-539) was 22.3 µM (inactive). For the same molecule, the GI50 (M14) was 68.1 µM (inactive), the GI50 (SN12C) was 22.1 µM (inactive) and the GI50 (IGROV-1) was 35.6 µM (inactive). The GI50 (NCI-H522) was 31.8 µM (inactive), the GI50 (ACHN) was 34.1 µM (inactive) and the GI50 (SF-295) was 15.7 µM (inactive). The GI50 (HCC 2998) was 29.8 µM (inactive), the GI50 (MDA-MB-435) was 18.2 µM (inactive) and the GI50 (Malme-3M) was > 100 µM (inactive). The GI50 (OVCAR-5) was 40.8 µM (inactive), the GI50 (OVCAR-8) was 38.5 µM (inactive) and the GI50 (HT-29) was 43.3 µM (inactive). For the same molecule, the GI50 (K562) was 29.5 µM (inactive), the GI50 (UACC-257) was 37.2 µM (inactive) and the GI50 (NCI-H460) was 13.6 µM (inactive). For the same molecule, the GI50 (SNB-75) was 18.5 µM (inactive), the GI50 (DU-145) was 83.4 µM (inactive) and the GI50 (LOX IMVI) was 20.4 µM (inactive). The GI50 (MOLT-4) was 11.2 µM (inactive), the GI50 (OVCAR-3) was 17.3 µM (inactive) and the GI50 (NCI-H226) was 19.7 µM (inactive). The GI50 (SF-268) was 26.8 µM (inactive), the GI50 (SK-OV-3) was 17.1 µM (inactive) and the GI50 (RXF 393) was 21 µM (inactive). For the same molecule, the GI50 (MDA-N) was 21.2 µM (inactive), the GI50 (T47D) was > 100 µM (inactive) and the GI50 (HCT-116) was 12.1 µM (inactive). For the same molecule, the GI50 (CAKI-1) was 30.1 µM (inactive), the GI50 (Hs-578T) was 10.3 µM (inactive) and the GI50 (SNB-19) was 16.3 µM (inactive). The GI50 (HOP-92) was 20.5 µM (inactive), the GI50 (TK-10) was 24.7 µM (inactive) and the GI50 (EKVX) was 69.8 µM (inactive). For the same molecule, the GI50 (SW-620) was 44.4 µM (inactive), the GI50 (HCT-15) was 17 µM and the GI50 (COLO 205) was > 100 µM (inactive). For the same molecule, the GI50 (UO-31) was 15.5 µM (inactive), the GI50 (SK-MEL-5) was 23.4 µM (inactive) and the GI50 (NCI-H23) was 29.9 µM (inactive). For the same molecule, the GI50 (SR) was 22 µM (inactive), the GI50 (SK-MEL-28) was 94.8 µM (inactive) and the GI50 (MCF7) was 39.3 µM (inactive). The GI50 (MDA-MB-231) was 23.9 µM (inactive), the GI50 (U-251) was 11.9 µM (inactive) and the GI50 (RPMI-8226) was 24.7 µM (inactive). For the same molecule, the GI50 (BT-549) was 21.2 µM (inactive), the GI50 (HL-60) was 17.4 µM (inactive) and the GI50 (A549) was 24.7 µM (inactive). The GI50 (A498) was 24.6 µM (inactive), the GI50 (SK-MEL-2) was 22.8 µM (inactive) and the GI50 (NCI/ADR-RES) was 36.3 µM (inactive). The GI50 (OVCAR-4) was 39 µM (inactive) and the GI50 (PC-3) was 15.3 µM (inactive).
